Data on five compounds can be found in patent US11767302B2, “Reagents and methods for tetrazine synthesis” (University of Delaware, priority 2020, dated 2023).

A short description of series [1]: Stopped-flow kinetic analysis of tetrazines with eq-5-hydroxy-trans-cyclooctene in PBS buffer at 25° C. To be noted: for k2, second order rate constant / kobs: PBS pH 7.4, 25° C.; for k2, second order rate constant: linear regression of kobs; for kobs: 0.025 mM tetrazine; for krel: relative to 5b, PBS, 25° C. The protocol: Solutions (5 mL) of tetrazines 5b, 6c, 5l, 6a and 4f (0.050 mM) were prepared in PBS buffer (pH 7.4). Solutions (10 mL) of eq-5-hydroxy-trans-cyclooctene (0.50, 0.60, 0.70, 0.80 mM) were prepared in PBS buffer (pH 7.4). The reactions between tetrazines and trans-cyclooctene were measured under pseudo-first order conditions using SX 18MV-R stopped-flow spectrophotometer (Applied Photophysics Ltd.). Each solution of tetrazine and trans-cyclooctene were injected in equal volumes via 3 mL syringes into the stopped-flow instrument at 25° C., resulting in final concentration of 0.025 mM of tetrazines and 0.25, 0.30, 0.35, 0.40 mM trans-cyclooctene. The reaction was monitored by the decay of absorbance associated with the tetrazines (5b at 263 nm, 6c at 268 nm, 5l at 274 nm, 6a at 296 nm, 4f at 266 nm). Reaction were repeated in triplicate. With Prism software, an observed rate constant, kobs, was obtained by nonlinear regression. Second order rate constants, k2, were calculated by linear regression between kobs and final concentration of trans-cyclooctene.

Series [2] in a line: Tetrazine stability in PBS buffer in ambient light at 25° C. It counts as physicochemical. The conditions noted are these: PBS buffer pH 7.4, ambient light, day 0-5. On the procedure:
Solutions (3 mL) of tetrazine 5b, 5l and 6c (400 μM) were prepared in PBS buffer (pH 7.4) in vials and stored in ambient light at 25° C. Tetrazine concentrations were determined by recording the absorbance at 518 nm (6c) and 520 nm (5b and 5l) in cuvettes in day 0, 1, 3 and 5. A solution of 6a (50 μM) was prepared in PBS buffer (pH 7.4) in vials and stored in ambient light at room temperature. Tetrazine concentration was determined by recording the absorbance at 520 nm in cuvettes at day 0, 1, 3 and 5.

Series [3] is described as follows: Tetrazine stability in Opti-MEM media in ambient light at 25° C. It counts as physicochemical. The conditions noted are these: 400 μM. On the procedure: Solutions (10 mL) of tetrazine 5b and 6c (400 μM) were prepared in Opti-MEM media in vials and stored in ambient light at 25° C. 2 mL of solution was extracted by 2 mL of Et2O in different time point. Tetrazine concentrations were determined by recording the absorbance of Et2O at 545 nm.

Another series can be described thus: Experimental log P. It counts as physicochemical.
The target in another series is T1, human MAGL enzyme (Homo sapiens, UniProt Q99685).
T1 sequence (Q99685 1-303): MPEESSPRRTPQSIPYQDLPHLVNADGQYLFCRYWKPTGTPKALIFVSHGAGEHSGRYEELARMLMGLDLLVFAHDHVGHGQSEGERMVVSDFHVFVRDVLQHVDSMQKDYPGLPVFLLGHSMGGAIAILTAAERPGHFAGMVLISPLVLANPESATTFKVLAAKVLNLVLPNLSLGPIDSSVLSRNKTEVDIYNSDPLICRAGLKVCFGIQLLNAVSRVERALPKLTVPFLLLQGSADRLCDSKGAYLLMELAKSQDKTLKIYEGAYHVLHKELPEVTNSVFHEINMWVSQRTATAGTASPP
As to the kind of experiment: MAGL in vitro activity assay (7-HCA substrate, fluorescence). In kind it is biochemical. To be noted: human MAGL pre-treated 30 min at room temperature, 7-HCA substrate 1 h; read-out: IC50, inhibition of MAGL activity in vitro. On the procedure: MAGL in vitro activity assay. The MAGL in vitro activity assay was performed based on a reported protocol. Briefly, human MAGL enzyme was pre-treated with compounds at room temperature for 30 min, and subsequently incubated with 7-hydroxycoumarinyl arachidonate (7-HCA) as a substrate at room temperature for 1 h. The fluorescence signals were measured on an Envision plate reader (excitation 355 nm, emission 460 nm).

The target of a further series is T2, endogenous MAGL (Homo sapiens, UniProt Q99685).
T2 sequence (Q99685 1-303): T1 sequence (Q99685 1-303)
Briefly: Labeling of endogenous MAGL in live cells, gel-based ABPP with TCO-TAMRA. In kind it is cell-based. To be noted: human brain vascular pericytes, probe 1 h, 2 μM TCO-TAMRA 30 min. The protocol:
Cell culture and probe treatment. Human brain vascular pericytes were cultured in Dulbecco's Modified Eagle Medium/Nutrient Mixture F-12 (DMEM/F-12) GlutaMAX media supplemented with 5% heat-inactivated fetal bovine serum (HI FBS), 1× pericyte growth supplement (PGS), and 1× penicillin-streptomycin at 37° C. with 5% CO2 in a humidified environment. Probe treatment was performed in duplicates. Cells were plated in 6-well plates and cultured overnight in growth media. Live cells were then treated with 300 nM KML29 as a competitor compound (or DMSO as a control) at 37° C. for 1 h. Cells were subsequently treated with probe 9 (0.3 nM-3.2 μM) at 37° C. for 1 h (cells pre-treated with KML29 were treated with 32 nM of probe 9), after which the cells were washed with fresh growth media. The media were then placed with fresh media containing 2 μM of TCO-TAMRA, and the cells were incubated at 37° C. for 30 min. To quench the reaction, the media were replaced with PBS containing 100 μM tetrazine amine, and the cells were washed with cold PBS and harvested with a scrapper. The suspensions were centrifuged at 10,000×g for 1 min at 37° C., and the cell pellets were lysed in PBS containing 0.25% sodium dodecyl sulfate (SDS) with sonication. The protein concentration was measured with a bicinchoninic acid (BCA) assay kit (Thermo Scientific) and normalized. In-gel fluorescence and data analysis. The proteomes were analyzed with 1.0 mm thick 4-12% bis-tris 15-well protein gels in 2-(N-morpholino)ethanesulfonic acid (MES) buffer. The gels were scanned with a Typhoon FLA 9500 Biomolecular Imager (GE Healthcare) with the TAMRA channel with 532 nm excitation and a 575 nm long pass emission filter. To measure the total protein loading, the gels were treated with ClearPage Instant Blue (CBS Scientific) overnight, and after brief destaining with water, scanned with an Odyssey Imager (Li-COR) at the 700 nm channel. The in-gel fluorescence images were processed with ImageJ software (v1.47, NIH), and the intensities were quantified with Image Studio (v5.2, Li-COR) with background subtraction. The coomassie images were processed and quantified with the Image Studio software with background subtraction. For analysis of the cellular potency, the in-gel fluorescence intensities of the two MAGL bands were averaged, normalized with the total coomassie intensity of the corresponding sample, and fitted with a dose-response equation with Prism v7.02 (GraphPad). […] The media were then placed with fresh media containing 2 μM of TCO-TAMRA, and the cells were incubated at 37° C. for 30 min. […] The protein concentration was measured with a bicinchoninic acid (BCA) assay kit (Thermo Scientific) and normalized. In-gel fluorescence and data analysis. […]

In the next series the test system is MAGL. Briefly: Cellular labeling kinetics of TCO-TAMRA with MAGL probes in live human brain vascular pericytes. It counts as cell-based. The conditions noted are these: for extent of MAGL labeling at the probe concentration used: 100c 1 μM or 12 32 nM, 37° C., 1 h. The protocol: To measure the cellular labeling kinetics of TCO-TAMRA with 100c and 12, live cells were treated with 100c (1 μM) or 12 (32 nM) at 37° C. for 1 h. […] Subsequently, the cells were washed with fresh growth media, which were placed with fresh media containing 50 nM, 200 nM, or 2 μM of TCO-TAMRA, and the cells were incubated at 37° C. for 2, 5, 10, 15, 20, 30, and 60 min. To quench the reaction, the media were replaced with PBS containing 100 μM tetrazine amine, and the cells were washed with cold PBS and harvested with a scrapper.
The suspensions were centrifuged at 10,000×g for 1 min at 37° C., and the cell pellets were lysed in PBS containing 0.25% sodium dodecyl sulfate (SDS) with sonication. The protein concentration was measured with a bicinchoninic acid (BCA) assay kit (Thermo Scientific) and normalized.
In-gel fluorescence and data analysis. Same procedure as described in Example 17 was used.

A short description of series [4]: Stopped-flow kinetic analysis of MAGL tetrazines with eq-5-hydroxy-trans-cyclooctene in MeOH at 25° C. To be noted: for kobs: 0.04 mM tetrazine, 0.40 mM trans-cyclooctene, MeOH; for kobs / krel: 25° C.; for krel: relative to 12, MeOH. The protocol:
Solutions (3 mL) of tetrazines 100a, 100b, 100c and 12 (0.080 mM) was prepared in MeOH. Solutions (3 mL) of eq-5-hydroxy-trans-cyclooctene (0.80 mM) were prepared in MeOH. The reactions between tetrazines and trans-cyclooctene were measured under pseudo-first order conditions using SX 18MV-R stopped-flow spectrophotometer (Applied Photophysics Ltd.). Each solution of tetrazine and trans-cyclooctene were injected in equal volumes via 3 mL syringes into the stopped-flow instrument at 25° C., resulting in final concentration of 0.04 mM of tetrazines and 0.40 mM trans-cyclooctene. The reaction was monitored by the decay of absorbance associated with the tetrazines (10a and 10b at 300 nm, 10c at 280 nm). Reaction were repeated in triplicate. With Prism software, an observed rate constant, kobs, was obtained by nonlinear regression.

The conditions of series [5]: 30° C. to 400/500° C. at 5° C./min.
Protocol: DSC data was obtained on a Mettler-Toledo Differential Scanning Calorimeter 3+. Samples were loaded into a goldplated high-pressure pan, held at 30° C. for 10 minutes, then a gradient of 30° C. to 400/500° C. at 5° C./min.

Some results are limits rather than exact numbers.

Regarding `COC(=O)CCc1nnc(-c2ccccc2)nn1` [5b, methyl 3-(6-phenyl-1,2,4,5-tetrazin-3-yl)propanoate], in series [1], the “k2, second order rate constant” value came out at 197.9 ± 13.36 M⁻¹ s⁻¹. Besides, the kobs was determined as 0.57 s⁻¹ in series [1] (TCO 0.25 mM), 0.065 s⁻¹ in series [1] (TCO 0.30 mM), 0.075 s⁻¹ in series [1] (TCO 0.35 mM) and 0.87 s⁻¹ in series [1] (TCO 0.40 mM). Moreover, in series [1], the krel was found to be 1.0. Moreover, the decomposition per day in [2] is reported as 1.8%; in series [3], 6.7%. In “Experimental log P”, this compound had a logP of 2.2.

As to `C=C(OCC)c1nnc(CCC(=O)OC)nn1` [6c, methyl 3-(6-(1-ethoxyvinyl)-1,2,4,5-tetrazin-3-yl)propanoate], the “k2, second order rate constant” value in [1] amounted to 833 ± 35.7 M⁻¹ s⁻¹. In addition, the kobs in series [1] (TCO 0.25 mM) was 0.20 s⁻¹; in series [1] (TCO 0.30 mM), 0.24 s⁻¹; in series [1] (TCO 0.35 mM), 0.28 s⁻¹; in series [1] (TCO 0.40 mM), 0.33 s⁻¹. Also, the “times faster than 5b” value in series [1] (reaction with 5-hydroxyTCO) is given as 4.2 times. In series [1], this compound came in with a krel of 4.2. For the same compound, the results for the decomposition per day in series [2] and in [3] were 3.9% and 10.8%, respectively. The compound also displayed a logP in “Experimental log P” of 0.89.

`O=C(OC(C(F)(F)F)C(F)(F)F)N1CCC(CNS(=O)(=O)c2ccc(-c3nncnn3)cc2)CC1` [100c, 1,1,1,3,3,3-hexafluoropropan-2-yl 4-((4-(1,2,4,5-tetrazin-3-yl)phenylsulfonamido)methyl)piperidine-1-carboxylate]: the IC50 at human MAGL enzyme stood at 0.016 µM. In addition, the “labeling of MAGL by gel-based ABPP” value at endogenous MAGL is “strong labeling of MAGL”. Moreover, the “time at which labeling was complete” value in the series on MAGL (100c 1 μM 1 h, then 2 μM TCO-TAMRA, first data point) is reported as at most 2 min. The “extent of MAGL labeling at the probe concentration used” value in the series on MAGL is on record as “full labeling of MAGL”. Moreover, in [4], the kobs was 0.2011 s⁻¹ and the krel was found to be 162. In addition, the “times more reactive than 100b” value in series [4] (stopped flow kinetics with 5-hydroxyTCO) is recorded as 6.5 times.

For `Cc1nnc(SCc2ccc(-c3ccccc3)cc2)nn1` [b-Tz, 3-([1,1′-biphenyl]-4-ylmethylthio)-6-methyl-1,2,4,5-tetrazine], in series [5], the DSC onset temperature was 170 °C and the DSC transition enthalpy was 900 J/g.

With `Cc1nnc(-c2ccc(-n3ccc(C4CCN(C(=O)OC(C(F)(F)F)C(F)(F)F)CC4)n3)cc2)nn1` [compound 12, reference compound], in the series with MAGL, the “extent of MAGL labeling at the probe concentration used” value is “full labeling of MAGL”. In series [4], this compound had a kobs of 0.001244 s⁻¹ and a krel of 1.

By logP is commonly meant a log measure of how a compound divides between an organic and an aqueous phase. The low end stands for a more hydrophilic compound, the high end for a more lipophilic compound. By IC50 is commonly meant the concentration needed to halve the response being measured.
